SMILES strings stand for the structures. Square brackets hold non-standard residues; d marks the D form. Peptide text beside a SMILES is read from it. * marks the point of attachment. Hydrocinnamoyl = O=C(CCc1ccccc1)*; pGlu = O=C1CC[C@@H](C(=O)O)N1; Bz = O=C(c1ccccc1)*

The target of the assay is Angiotensin-converting enzyme (Homo sapiens, UniProt P12821). The assay is described as follows: In vitro inhibitory activity against Angiotensin I converting enzyme. As to conditions: read-out: I50.
Chain of Angiotensin-converting enzyme (P12821 whole entry): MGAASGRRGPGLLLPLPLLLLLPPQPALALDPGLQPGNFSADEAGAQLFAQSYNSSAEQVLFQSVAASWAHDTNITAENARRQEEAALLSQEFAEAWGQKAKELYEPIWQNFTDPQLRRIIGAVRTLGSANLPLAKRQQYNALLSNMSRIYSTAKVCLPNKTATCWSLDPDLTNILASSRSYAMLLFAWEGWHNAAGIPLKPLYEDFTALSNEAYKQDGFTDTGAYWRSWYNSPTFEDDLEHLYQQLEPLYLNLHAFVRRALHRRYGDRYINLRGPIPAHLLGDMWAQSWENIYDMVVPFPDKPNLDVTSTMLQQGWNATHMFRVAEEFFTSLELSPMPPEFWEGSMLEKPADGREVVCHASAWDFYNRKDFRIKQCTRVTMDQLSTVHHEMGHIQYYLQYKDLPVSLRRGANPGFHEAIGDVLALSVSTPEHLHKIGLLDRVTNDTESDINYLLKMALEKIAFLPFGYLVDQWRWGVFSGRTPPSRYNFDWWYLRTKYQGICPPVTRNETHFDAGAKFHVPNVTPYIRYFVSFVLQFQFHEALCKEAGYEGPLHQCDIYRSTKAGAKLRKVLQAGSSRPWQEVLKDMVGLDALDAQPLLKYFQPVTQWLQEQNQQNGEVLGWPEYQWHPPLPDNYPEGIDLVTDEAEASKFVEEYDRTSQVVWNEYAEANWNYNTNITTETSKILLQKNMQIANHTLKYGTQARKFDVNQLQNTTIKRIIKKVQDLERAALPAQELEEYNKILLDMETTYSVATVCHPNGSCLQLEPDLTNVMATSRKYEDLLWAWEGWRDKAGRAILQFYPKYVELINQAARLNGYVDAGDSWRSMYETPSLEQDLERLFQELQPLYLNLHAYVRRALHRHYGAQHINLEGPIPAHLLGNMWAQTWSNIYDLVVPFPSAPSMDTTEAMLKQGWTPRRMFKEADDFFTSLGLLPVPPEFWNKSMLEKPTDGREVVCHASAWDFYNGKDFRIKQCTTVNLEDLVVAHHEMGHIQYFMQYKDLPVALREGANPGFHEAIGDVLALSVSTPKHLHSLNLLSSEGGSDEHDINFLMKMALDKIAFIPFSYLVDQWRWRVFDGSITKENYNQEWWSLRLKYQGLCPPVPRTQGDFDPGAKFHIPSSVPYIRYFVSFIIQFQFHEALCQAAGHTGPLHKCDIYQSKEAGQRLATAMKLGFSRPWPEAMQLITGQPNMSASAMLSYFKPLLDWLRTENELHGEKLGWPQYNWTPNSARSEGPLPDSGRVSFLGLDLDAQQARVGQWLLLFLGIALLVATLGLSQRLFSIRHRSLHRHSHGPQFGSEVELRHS
Turning to `C[C@H](N[C@@H](C[C@H](Cc1ccccc1)NC(=O)c1ccccc1)C(=O)O)C(=O)N1CCC[C@H]1C(=O)O`, the IC50 worked out at 0.003 µM.
The same measure for `C[C@H](N[C@H](C(=O)O)[C@H](Cc1ccccc1)NC(=O)c1ccccc1)C(=O)N1CCC[C@H]1C(=O)O`: 0.0077 µM; for `C[C@H](NC(=O)[C@H](Cc1ccccc1)NC(=O)c1ccccc1)C(=O)N1CCC[C@H]1C(=O)O` (Bz-Phe-Ala-Pro-OH): 2.7 µM.
The same measure for `C[C@H](N[C@H](C[C@H](Cc1ccccc1)NC(=O)c1ccccc1)C(=O)O)C(=O)N1CCC[C@H]1C(=O)O`: 0.0048 µM; for `C[C@H](N[C@@H](C(=O)O)[C@H](Cc1ccccc1)NC(=O)c1ccccc1)C(=O)N1CCC[C@H]1C(=O)O`: 1.4 µM; for `O=C(CCC(=O)N1CCCC1C(=O)O)CCc1ccccc1` (centres undefined): 2600 µM.
The same measure for `C[C@H](NC(CNC(=O)c1ccccc1)C(=O)O)C(=O)N1CCC[C@H]1C(=O)O` (some centres undefined): 0.04 µM.
Regarding `CC(NC(C(=O)O)C1CCCN1C(=O)c1ccccc1)C(=O)N1CCCC1C(=O)O` (centres undefined), the IC50 was found to be 0.0029 µM.
In the case of `C[C@H](NC(=O)[C@@H](N)Cc1ccccc1)C(=O)N1CCC[C@H]1C(=O)O` (H-Phe-Ala-Pro-OH), the IC50 is 1.4 µM.
In the case of `C[C@H](N[C@H](C(=O)O)[C@@H]1CCCN1)C(=O)N1CCC[C@H]1C(=O)O`, the IC50 stood at 0.7 µM.
Next, `C[C@H](N[C@@H](CNC(=O)c1ccccc1)C(=O)O)C(=O)N1CCC[C@H]1C(=O)O`: 0.017 µM; `C[C@H](NC(=O)CCc1ccccc1)C(=O)N1CCC[C@H]1C(=O)O` (Hydrocinnamoyl-Ala-Pro-OH): 330 µM.
For the molecule `CC(=O)N1CCCC1C(NC(C)C(=O)N1CCCC1C(=O)O)C(=O)O` (centres undefined), the IC50 was 0.0094 µM.
Next, `C[C@H](NC(=O)[C@H](Cc1ccccc1)NC(=O)[C@H](CCCCN)NC(=O)[C@@H]1CCC(=O)N1)C(=O)N1CCC[C@H]1C(=O)O` ([pGlu]KFAP-OH): 5 µM.

The record behind these values is ChEMBL document CHEMBL1122972, “Angiotensin-converting enzyme inhibitors: synthesis and biological activity of acyl tripeptide analogues of enalapril” (J Med Chem, 1985).
